Drawing on patent US12398154B2, “Azaquinazoline pan-KRas inhibitors” (Mirati Therapeutics, Inc., priority 2020, dated 2025), this text covers IC50 for eight compounds.

One test addresses KRas G12D (Homo sapiens, UniProt P01116, G12D). As to the kind of experiment: biochemical.
The target in another test is KRas G12V (Homo sapiens, UniProt P01116, G12V). As to the kind of experiment: biochemical.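 Also: KRas binding measured by TR-FRET displacement at room temperature, IC50 fitted from percent of control values.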
Another test concerns the target KRas G12R (Homo sapiens, UniProt P01116, G12R). Description: biochemical.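 Also: TR-FRET displacement assay of compound binding to KRas, read after one hour at room temperature, potency from a four-parameter fit of percent-of-control values.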
In another test the test system is pERK in MKN1 cells. As to the kind of experiment: Inhibition of KRas phosphorylation of ERK (Cisbio HTRF pERK assay). As to conditions: Homo sapiens, MKN-1, 3 h, read-out: Inhibition (HTRF IC50) of KRas-mediated Phosphorylation of ERK, MKN1.
Another test relates to pERK in PSN1 cells. The test is described as above. To be noted: Homo sapiens, PSN1, 3 h, read-out: Inhibition (HTRF IC50) of KRas-mediated Phosphorylation of ERK, PSN1.
In another test the test system is pERK in ASPC1 cells. The test is described as above. To be noted: Homo sapiens, ASPC1, read-out: Inhibition (HTRF IC50) of KRas-mediated Phosphorylation of ERK, AsPC-1. (TR-FRET usually uses a lanthanide donor and a delayed reading to cut background.)
A further test deals with pERK in H727 cells. The description is as above. As to conditions: Homo sapiens, NCI-H727, read-out: Inhibition (HTRF IC50) of KRas-mediated Phosphorylation of ERK, H727.
The test system of another test is pERK in A549 cells. The description is as above. To be noted: Homo sapiens, A549, read-out: Inhibition (HTRF IC50) of KRas-mediated Phosphorylation of ERK, A549.
A further test relates to pERK in H460 cells. Described as above. As to conditions: Homo sapiens, NCI-H460, read-out: Inhibition (HTRF IC50) of KRas-mediated Phosphorylation of ERK, H460.
The test system of the next test is pERK in HCT116 cells. The description is as above. As to conditions: Homo sapiens, HCT-116, read-out: Inhibition (HTRF IC50) of KRas-mediated Phosphorylation of ERK, HCT116.
In the next test the test system is pERK in H358 cells. The test is described as above. To be noted: Homo sapiens, NCI-H358, read-out: Inhibition (HTRF IC50) of KRas-mediated Phosphorylation of ERK, H358.

pIC50: −log10 of the molar value.

Chain of KRas G12D (P01116 1-169 isoform P01116-2 G12D): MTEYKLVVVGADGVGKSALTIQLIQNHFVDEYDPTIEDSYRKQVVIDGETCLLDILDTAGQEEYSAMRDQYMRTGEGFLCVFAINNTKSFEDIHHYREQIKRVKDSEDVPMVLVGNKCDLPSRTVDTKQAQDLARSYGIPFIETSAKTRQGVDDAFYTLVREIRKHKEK
Chain of KRas G12V (P01116 1-169 isoform P01116-2 G12V): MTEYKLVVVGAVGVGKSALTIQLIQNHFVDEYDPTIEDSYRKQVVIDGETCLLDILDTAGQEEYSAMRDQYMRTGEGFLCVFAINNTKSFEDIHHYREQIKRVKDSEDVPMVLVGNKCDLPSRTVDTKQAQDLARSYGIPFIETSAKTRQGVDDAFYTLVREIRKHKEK
Chain of KRas G12R (P01116 1-169 isoform P01116-2 G12R): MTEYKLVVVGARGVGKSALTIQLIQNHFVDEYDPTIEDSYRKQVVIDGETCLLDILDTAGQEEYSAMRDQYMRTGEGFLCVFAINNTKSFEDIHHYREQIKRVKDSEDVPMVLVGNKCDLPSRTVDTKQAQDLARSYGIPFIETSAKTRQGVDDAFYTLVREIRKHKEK

As a reminder, the pIC50 is −log10 of the IC50, conventionally taken in molar units. For the compound `C#Cc1c(F)ccc2cc(O)cc(-c3ncc4c(N5CCCC6(CC(O)C6)C5)nc(OC[C@@]56CCCN5C[C@H](F)C6)nc4c3F)c12` (stereo partly drawn) [Example 393, 6-(7-(8-ethynyl-7-fluoro-3-hydroxynaphthalen-1-yl)-8-fluoro-2-(((2R,7aS)-2-fluorohexahydro-1H-pyrrolizin-7a-yl)methoxy)pyrido[4,3-d]pyrimidin-4-yl)-6-azaspiro[3.5]nonan-2-ol], the pIC50 at KRas G12D is at least 8.70; at KRas G12V it was at least 8.70; against KRas G12R it was at least 8.70; in the test on pERK in MKN1 cells it was 8.10; with pERK in PSN1 cells, 6.35; in the test on pERK in ASPC1 cells, 7.17. The pIC50 with pERK in H727 cells is 7.62; in the test with pERK in A549 cells, 6.88; in the test with pERK in H460 cells it was 6.96; with pERK in HCT116 cells, 7.17; in the test on pERK in H358 cells, 7.70.
With `C#Cc1c(F)ccc2cc(O)cc(-c3ncc4c(N5CCCn6nc(C(=O)N(C)C)cc6C5)nc(OC[C@@]56CCCN5C[C@H](F)C6)nc4c3F)c12` [Example 398, 5-(7-(8-ethynyl-7-fluoro-3-hydroxynaphthalen-1-yl)-8-fluoro-2-(((2R,7aS)-2-fluorohexahydro-1H-pyrrolizin-7a-yl)methoxy)pyrido[4,3-d]pyrimidin-4-yl)-N,N-dimethyl-5,6,7,8-tetrahydro-4H-pyrazolo[1,5-a][1,4]diazepine-2-carboxamide], the pIC50 against KRas G12D was at least 8.70; against KRas G12V it was at least 8.70; against KRas G12R it was at least 8.70; with pERK in MKN1 cells, 8.15; with pERK in PSN1 cells, 5.17; with pERK in ASPC1 cells it was 7.60. Besides, the pIC50 in the test with pERK in H727 cells was 7.59; with pERK in A549 cells, 6.99; with pERK in H460 cells it was 6.41; with pERK in HCT116 cells, 6.46; in the test on pERK in H358 cells, 8.00.
For `C[C@@]1(O)CCCN(c2nc(OC[C@@]34CCCN3C[C@H](F)C4)nc3c(F)c(-c4cc(O)cc5ccc(F)c(Br)c45)ncc23)C1` [Example 399, (R)-1-(7-(8-bromo-7-fluoro-3-hydroxynaphthalen-1-yl)-8-fluoro-2-(((2R,7aS)-2-fluorohexahydro-1H-pyrrolizin-7a-yl)methoxy)pyrido[4,3-d]pyrimidin-4-yl)-3-methylpiperidin-3-ol], the pIC50 on KRas G12D is at least 8.70; at KRas G12V, at least 8.70; against KRas G12R it was at least 8.70; in the test with pERK in MKN1 cells, 9.00; in the test with pERK in PSN1 cells, 6.45; in the test with pERK in ASPC1 cells, 8.52. Further, the pIC50 was 7.80 with pERK in H727 cells; 7.85 with pERK in A549 cells; 7.74 in the test on pERK in H460 cells; 7.64 in the test on pERK in HCT116 cells; 8.40 in the test with pERK in H358 cells.
`CC1(O)COCCN(c2nc(OC[C@@]34CCCN3C[C@H](F)C4)nc3c(F)c(-c4cc(O)cc5ccc(F)c(Br)c45)ncc23)C1` (stereo partly drawn) [Example 400, 4-(7-(8-bromo-7-fluoro-3-hydroxynaphthalen-1-yl)-8-fluoro-2-(((2R,7aS)-2-fluorohexahydro-1H-pyrrolizin-7a-yl)methoxy)pyrido[4,3-d]pyrimidin-4-yl)-6-methyl-1,4-oxazepan-6-ol]: the pIC50 was at least 8.70 against KRas G12D; at least 8.70 at KRas G12V; at least 8.70 against KRas G12R; 8.15 in the test with pERK in MKN1 cells; 5.45 in the test with pERK in PSN1 cells; 7.57 in the test with pERK in ASPC1 cells. For the same compound, the pIC50 was 7.06 in the test on pERK in H727 cells; 7.21 in the test on pERK in A549 cells; 7.39 with pERK in H460 cells; 6.95 in the test with pERK in HCT116 cells; 8.05 in the test on pERK in H358 cells.
Regarding `Oc1cc(-c2ncc3c(N4CC5CC(O)C(C5)C4)nc(OC[C@@]45CCCN4C[C@H](F)C5)nc3c2F)c2c(Br)c(F)ccc2c1` (stereo partly drawn) [Example 402, 3-(7-(8-bromo-7-fluoro-3-hydroxynaphthalen-1-yl)-8-fluoro-2-(((2R,7aS)-2-fluorohexahydro-1H-pyrrolizin-7a-yl)methoxy)pyrido[4,3-d]pyrimidin-4-yl)-3-azabicyclo[3.2.1]octan-6-ol], the pIC50 at KRas G12D was at least 8.70; against KRas G12V it was at least 8.70; on KRas G12R, at least 8.70; with pERK in MKN1 cells it was 8.52; in the test with pERK in PSN1 cells, 6.29; with pERK in ASPC1 cells, 7.92. In addition, the negative-log IC50 (pIC50) with pERK in H727 cells is 7.85; in the test with pERK in A549 cells, 7.47; in the test with pERK in H460 cells it was 7.29; with pERK in HCT116 cells, 7.34; with pERK in H358 cells, 8.40.
Turning to `Oc1cc(-c2ncc3c(N4CCCC5(CC(O)C5)C4)nc(OC[C@@]45CCCN4C[C@H](F)C5)nc3c2F)c2c(Br)c(F)ccc2c1` (stereo partly drawn) [Example 407, 6-(7-(8-bromo-7-fluoro-3-hydroxynaphthalen-1-yl)-8-fluoro-2-(((2R,7aS)-2-fluorohexahydro-1H-pyrrolizin-7a-yl)methoxy)pyrido[4,3-d]pyrimidin-4-yl)-6-azaspiro[3.5]nonan-2-ol], the pIC50 was at least 8.70 at KRas G12D; at least 8.70 against KRas G12V; at least 8.70 against KRas G12R; 7.82 in the test with pERK in MKN1 cells; 5.88 with pERK in PSN1 cells; 7.57 in the test with pERK in ASPC1 cells. For the same compound, the pIC50 in the test with pERK in H727 cells was 7.82; in the test with pERK in A549 cells it was 7.57; with pERK in H460 cells, 7.59; in the test with pERK in HCT116 cells, 7.39; with pERK in H358 cells, 8.52.
On to `CN(C)C(=O)c1cc2n(n1)CCCN(c1nc(OC[C@@]34CCCN3C[C@H](F)C4)nc3c(F)c(-c4cc(O)cc5ccc(F)c(Br)c45)ncc13)C2` [Example 412, 5-(7-(8-bromo-7-fluoro-3-hydroxynaphthalen-1-yl)-8-fluoro-2-(((2R,7aS)-2-fluorohexahydro-1H-pyrrolizin-7a-yl)methoxy)pyrido[4,3-d]pyrimidin-4-yl)-N,N-dimethyl-5,6,7,8-tetrahydro-4H-pyrazolo[1,5-a][1,4]diazepine-2-carboxamide], for which the pIC50 against KRas G12D was at least 8.70; at KRas G12V it was at least 8.70; at KRas G12R it was at least 8.70; with pERK in MKN1 cells, 7.47; with pERK in PSN1 cells it was 5.22; in the test on pERK in ASPC1 cells, 7.72. For the same compound, the pIC50 is 7.29 in the test with pERK in H727 cells; 6.62 with pERK in A549 cells; 6.38 in the test on pERK in H460 cells; 6.23 with pERK in HCT116 cells; 7.96 in the test with pERK in H358 cells.
As to `C[C@@]1(O)CCCN(c2nc(OC[C@@]34CCCN3C[C@H](F)C4)nc3c(F)c(-c4cc(O)cc5ccc(F)c(Cl)c45)ncc23)C1` [Example 418, (R)-1-(7-(8-chloro-7-fluoro-3-hydroxynaphthalen-1-yl)-8-fluoro-2-(((2R,7aS)-2-fluorohexahydro-1H-pyrrolizin-7a-yl)methoxy)pyrido[4,3-d]pyrimidin-4-yl)-3-methylpiperidin-3-ol], the pIC50 against KRas G12D was at least 8.70; against KRas G12V it was at least 8.70; against KRas G12R, 8.52; in the test with pERK in MKN1 cells it was 8.52; with pERK in PSN1 cells, 6.22; in the test on pERK in ASPC1 cells, 7.60. Further, the negative-log IC50 (pIC50) was 7.49 in the test on pERK in H727 cells; 7.13 with pERK in A549 cells; 7.28 in the test with pERK in H460 cells; 7.22 in the test on pERK in HCT116 cells; 7.96 in the test on pERK in H358 cells.
